Results as given in ChEMBL document CHEMBL4385604, “Identification of Pyrrolo[2,3- d]pyrimidine-Based Derivatives as Potent and Orally Effective Fms-like Tyrosine Receptor Kinase 3 (FLT3) Inhibitors for Treating Acute Myelogenous Leukemia” (J Med Chem, 2019).

Columns and labels:
[1] = molecular target: T1, Receptor-type tyrosine-protein kinase FLT3 (Homo sapiens, UniProt P36888)
T1 sequence (P36888 whole entry): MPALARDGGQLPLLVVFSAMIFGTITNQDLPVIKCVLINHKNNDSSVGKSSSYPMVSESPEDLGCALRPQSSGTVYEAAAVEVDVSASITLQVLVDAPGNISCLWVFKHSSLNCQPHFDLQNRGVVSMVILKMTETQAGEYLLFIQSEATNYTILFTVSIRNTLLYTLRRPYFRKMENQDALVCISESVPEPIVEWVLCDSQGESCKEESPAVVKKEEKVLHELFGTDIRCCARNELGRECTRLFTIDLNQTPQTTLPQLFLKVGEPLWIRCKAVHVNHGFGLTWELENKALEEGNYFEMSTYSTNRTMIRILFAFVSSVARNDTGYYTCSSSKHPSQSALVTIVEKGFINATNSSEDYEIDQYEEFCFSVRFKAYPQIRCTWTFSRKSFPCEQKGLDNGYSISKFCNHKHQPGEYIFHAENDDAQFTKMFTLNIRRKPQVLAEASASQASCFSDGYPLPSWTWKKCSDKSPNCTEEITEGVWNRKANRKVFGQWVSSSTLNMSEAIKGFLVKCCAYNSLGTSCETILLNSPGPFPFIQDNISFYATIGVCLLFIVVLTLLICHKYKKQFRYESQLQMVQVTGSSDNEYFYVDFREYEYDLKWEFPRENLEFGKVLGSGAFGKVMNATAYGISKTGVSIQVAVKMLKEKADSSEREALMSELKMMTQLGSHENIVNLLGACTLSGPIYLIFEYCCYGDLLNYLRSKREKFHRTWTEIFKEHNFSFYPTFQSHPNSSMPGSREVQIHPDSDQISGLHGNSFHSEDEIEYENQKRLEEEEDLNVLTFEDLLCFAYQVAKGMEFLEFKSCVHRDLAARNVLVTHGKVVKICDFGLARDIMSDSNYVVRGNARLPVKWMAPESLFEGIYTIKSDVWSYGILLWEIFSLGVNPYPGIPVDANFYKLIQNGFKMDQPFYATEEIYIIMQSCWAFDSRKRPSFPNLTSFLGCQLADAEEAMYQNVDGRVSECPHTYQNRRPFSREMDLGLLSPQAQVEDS

[2] = Plasma clearance in Sprague-Dawley rat at 5 mg/kg, po by LC-MS/MS analysis; type: ADME, organism-based
[3] = tested on: Receptor-type tyrosine-protein kinase FLT3 (Homo sapiens), P36888 [UNDEFINED MUTATION]; assay: Inhibition of FLT3 ITD mutant in human MV4-11 cells assessed as ratio of phosphorylated STAT5 to beta-actin level at 100 nM after 2 hrs by Western blot analysis relative to control; type: cell-based
[4] = tested on: Receptor-type tyrosine-protein kinase FLT3 (Homo sapiens), P36888 [UNDEFINED MUTATION]; assay: Inhibition of FLT3 ITD mutant in human MOLM13 cells assessed as ratio of phosphorylated STAT5 to beta-actin level at 30 nM after 2 hrs by Western blot analysis relative to control; type: cell-based
MOLM-13 [5] = assay: Antitumour activity against human MOLM13 cells xenografted in NOD/SCID mouse assessed as tumour growth inhibition at 1 mg/kg, po qd for 10 days measured every two days during compound dosing by caliper method relative to control; type: functional; details: MOLM-13, po, read-out: TGI
MOLM-13 [6] = assay: Cell cycle arrest in human MOLM13 cells assessed as accumulation at G0/G1 phase at 1 nM after 24 hrs by propidium iodide staining-based flow cytometric analysis (reference value: 44.53%); type: functional
MOLM-13 [7] = assay: Cell cycle arrest in human MOLM13 cells assessed as accumulation at G0/G1 phase at 3 nM after 24 hrs by propidium iodide staining-based flow cytometric analysis (reference value: 44.53%); type: functional
MOLM-13 [8] = assay: Cell cycle arrest in human MOLM13 cells assessed as accumulation at S phase at 3 nM after 24 hrs by propidium iodide staining-based flow cytometric analysis (reference value: 41.95%); type: functional
MOLM-13 [9] = assay: Cell cycle arrest in human MOLM13 cells assessed as accumulation at S phase at 10 nM after 24 hrs by propidium iodide staining-based flow cytometric analysis (reference value: 41.95%); type: functional
MOLM-13 [10] = assay: Induction of apoptosis in human MOLM13 cells assessed as late apoptotic cells at 1 nM after 48 hrs by Annexin V/propidium iodide staining based flow cytometry (reference value: 5.52%); type: functional
[11] = molecular target: Mast/stem cell growth factor receptor Kit (Homo sapiens, UniProt P10721); assay: Inhibition of recombinant human c-Kit (544 to end residues) using poly(Glu, Tyr) 4:1 as substrate measured after 40 mins in presence of [gamma-33P]-ATP by scintillation counting analysis
Mast/stem cell growth factor receptor Kit, sequence (P10721 whole entry): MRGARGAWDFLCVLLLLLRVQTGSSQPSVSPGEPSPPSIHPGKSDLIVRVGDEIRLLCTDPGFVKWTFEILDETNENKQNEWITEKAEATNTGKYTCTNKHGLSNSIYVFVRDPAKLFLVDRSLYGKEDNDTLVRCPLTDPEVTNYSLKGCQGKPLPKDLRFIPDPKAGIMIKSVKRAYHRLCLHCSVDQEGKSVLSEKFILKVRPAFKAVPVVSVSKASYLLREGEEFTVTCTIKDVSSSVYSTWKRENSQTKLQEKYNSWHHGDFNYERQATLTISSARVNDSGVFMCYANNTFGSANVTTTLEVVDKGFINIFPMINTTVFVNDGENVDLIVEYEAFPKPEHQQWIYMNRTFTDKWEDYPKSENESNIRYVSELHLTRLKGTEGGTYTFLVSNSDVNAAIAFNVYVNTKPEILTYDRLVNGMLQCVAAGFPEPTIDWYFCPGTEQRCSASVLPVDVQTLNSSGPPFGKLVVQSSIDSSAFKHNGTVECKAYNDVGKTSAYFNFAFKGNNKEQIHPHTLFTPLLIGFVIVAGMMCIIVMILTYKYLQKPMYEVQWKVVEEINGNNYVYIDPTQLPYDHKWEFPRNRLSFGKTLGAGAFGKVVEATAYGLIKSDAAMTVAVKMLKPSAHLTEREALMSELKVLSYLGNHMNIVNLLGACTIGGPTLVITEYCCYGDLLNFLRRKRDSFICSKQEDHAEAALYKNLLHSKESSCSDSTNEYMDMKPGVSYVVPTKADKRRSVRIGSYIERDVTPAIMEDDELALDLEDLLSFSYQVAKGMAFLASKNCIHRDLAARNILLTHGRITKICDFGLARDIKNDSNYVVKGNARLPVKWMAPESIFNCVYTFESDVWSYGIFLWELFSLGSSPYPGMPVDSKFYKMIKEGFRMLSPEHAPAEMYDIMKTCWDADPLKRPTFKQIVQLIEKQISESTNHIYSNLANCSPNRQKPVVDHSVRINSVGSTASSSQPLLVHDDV

Homo sapiens = species: Homo sapiens; assay: Selectivity ratio of IC50 for recombinant human c-Kit (544 to end residues) to IC50 for recombinant human FLT3 (564 to end residues)
MV4-11 [12] = assay: Cell cycle arrest in human MV4-11 cells assessed as accumulation at S phase at 30 nM after 24 hrs by propidium iodide staining-based flow cytometric analysis (reference value: 30.12%); type: functional
MOLM-13 [13] = assay: Induction of apoptosis in human MOLM13 cells assessed as viable cells at 100 nM after 48 hrs by Annexin V/propidium iodide staining based flow cytometry (reference value: 88.2%); type: functional; details: MOLM-13, 48 h, read-out: Activity
MOLM-13 [14] = assay: Induction of apoptosis in human MOLM13 cells assessed as early apoptotic cells at 100 nM after 48 hrs by Annexin V/propidium iodide staining based flow cytometry (reference value: 5.97%); type: functional
MOLM-13 [15] = assay: Induction of apoptosis in human MOLM13 cells assessed as late apoptotic cells at 100 nM after 48 hrs by Annexin V/propidium iodide staining based flow cytometry (reference value: 5.52%); type: functional
MOLM-13 [16] = assay: Induction of apoptosis in human MOLM13 cells assessed as early apoptotic cells at 1 uM after 48 hrs by Annexin V/propidium iodide staining based flow cytometry (reference value: 5.97%); type: functional
MOLM-13 [17] = assay: Induction of apoptosis in human MOLM13 cells assessed as late apoptotic cells at 1 uM after 48 hrs by Annexin V/propidium iodide staining based flow cytometry (reference value: 5.52%); type: functional
MOLM-13 [18] = assay: Induction of apoptosis in human MOLM13 cells assessed as early apoptotic cells at 10 uM after 48 hrs by Annexin V/propidium iodide staining based flow cytometry (reference value: 5.97%); type: functional
MV4-11 [19] = assay: Induction of apoptosis in human MV4-11 cells assessed as necrotic cells at 10 nM after 48 hrs by Annexin V/propidium iodide staining based flow cytometry (reference value: 0.06%); type: functional
MV4-11 [20] = assay: Induction of apoptosis in human MV4-11 cells assessed as viable cells at 100 nM after 48 hrs by Annexin V/propidium iodide staining based flow cytometry (reference value: 94.4%); type: functional; details: MV4-11, 48 h, read-out: Activity
MV4-11 [21] = assay: Induction of apoptosis in human MV4-11 cells assessed as viable cells at 1 uM after 48 hrs by Annexin V/propidium iodide staining based flow cytometry (reference value: 94.4%); type: functional; details: MV4-11, 48 h, read-out: Activity
MV4-11 [22] = assay: Induction of apoptosis in human MV4-11 cells assessed as early apoptotic cells at 10 uM after 48 hrs by Annexin V/propidium iodide staining based flow cytometry (reference value: 2.76%); type: functional

IC50 [1]: 7 nM | CL/F [2]: 20.3 mL/min/kg | fold change (FC) [3]: 0 | fold change (FC) [4]: 0 | IC50 [11]: > 300 nM | Ratio IC50 (Homo sapiens): > 40
Compound: C=CCn1cc(-c2ccc(NC(=O)Nc3cc(C(C)(C)C)on3)cc2)c2c(N)ncnc21
inhibition in vivo at 1 mg/kg (MOLM-13 [5]): 77.9% | Activity (MOLM-13 [6]): 53.77% | Activity (MOLM-13 [7]): 83.62% | Activity (MOLM-13 [8]): 11.83% | Activity (MOLM-13 [9]): 3.01% | Activity (MOLM-13 [10]): 8.57% | Activity (MV4-11 [12]): 1.96% | viability at 0.1 µM (MOLM-13 [13]): 62.8% | Activity (MOLM-13 [14]): 15.5% | Activity (MOLM-13 [15]): 21.5% | Activity (MOLM-13 [16]): 23.5% | Activity (MOLM-13 [17]): 46.8% | Activity (MOLM-13 [18]): 0.61% | Activity (MV4-11 [19]): 0.2% | viability at 0.1 µM (MV4-11 [20]): 75.7% | viability at 1 µM (MV4-11 [21]): 55% | Activity (MV4-11 [22]): 13.4%
